Values quoted from earlier work, collected in patent publication US20120058950A1, “DETECTION OF NEUROPEPTIDES ASSOCIATED WITH PELVIC PAIN DISORDERS AND USES THEREOF” (University of Vermont and State Agricultural College, priority 2003, published 2012).
No end group written: not given here.

## Pituitary Adenylate Cyclase Activating Peptide (HSDGIFTDSYSRYRKQMAVKKYLAAVLGKRYKQRVKNK; ends and bridges not checked; UniProt P18509 132-169, looked up) [PACAP]
detrusor
  bladder activity in vitro (contraction of detrusor, alteration of electrically or cholinergically elicited contractions): no bladder activity in vitro
bladder
  activity when infused near the bladder: has activity when infused near the bladder
